Source: US9353104B2, “Substituted pyridizinone derivatives as PDE10 inhibitors” (priority 2013, dated 2016)

Target: human PDE10A2 (Homo sapiens (Human), UniProt Q9Y233)
Assay: PDE10 fluorescence polarization (IMAP FP) inhibition assay
Type: biochemical
Details: human PDE10A2 lysate, FAM-labeled cAMP 50 nM, room temperature; read-out: PDE10A Ki
In short: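 Cytoplasmic lysate of AD293 cells transiently expressing human PDE10A2, diluted for ~20% conversion of 50 nM FAM-cAMP, in 10 mM Tris pH 7.2, 10 mM MgCl2, 1 mM DTT, 0.01% Tween-20. Reaction 30 min at room temperature, read by IMAP fluorescence polarization; 10-point 3-fold titrations, 1% DMSO as 0%, reference PDE10 inhibitor at 5,000× Ki as 100%.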

human PDE10A2, sequence (Q9Y233 267-1055): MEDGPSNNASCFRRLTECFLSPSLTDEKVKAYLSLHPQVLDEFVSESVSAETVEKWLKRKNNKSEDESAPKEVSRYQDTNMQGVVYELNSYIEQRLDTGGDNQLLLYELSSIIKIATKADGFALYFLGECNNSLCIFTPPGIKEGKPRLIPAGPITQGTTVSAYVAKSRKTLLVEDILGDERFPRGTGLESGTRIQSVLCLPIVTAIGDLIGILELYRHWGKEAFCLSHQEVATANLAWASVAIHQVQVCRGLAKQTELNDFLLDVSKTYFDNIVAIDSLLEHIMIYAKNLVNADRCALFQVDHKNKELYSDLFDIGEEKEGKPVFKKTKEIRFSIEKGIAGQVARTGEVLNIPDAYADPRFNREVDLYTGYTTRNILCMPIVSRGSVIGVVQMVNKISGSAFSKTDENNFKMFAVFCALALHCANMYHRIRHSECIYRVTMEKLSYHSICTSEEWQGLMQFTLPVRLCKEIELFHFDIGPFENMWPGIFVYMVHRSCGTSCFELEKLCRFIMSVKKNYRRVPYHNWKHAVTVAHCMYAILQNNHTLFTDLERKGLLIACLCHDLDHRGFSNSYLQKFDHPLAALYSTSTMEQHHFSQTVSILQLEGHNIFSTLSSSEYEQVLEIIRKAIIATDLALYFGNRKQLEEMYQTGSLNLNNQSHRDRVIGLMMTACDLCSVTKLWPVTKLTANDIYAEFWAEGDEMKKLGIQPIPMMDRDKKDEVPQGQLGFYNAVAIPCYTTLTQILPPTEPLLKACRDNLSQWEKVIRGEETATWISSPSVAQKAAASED

Ki [pM]	Compound
2	Cc1ccc(CNc2cc(OC[C@H]3C[C@@H]3c3ccc4c(n3)CCC4)nn(C)c2=O)c(C)n1 [Example 56, 6-(((1S,2S)-2-(6,7-dihydro-5H-cyclopenta-[b]pyridin-2-yl)cyclo-propyl)methoxy)-4-(((2,6-dimethylpyridin-3-yl)-methyl)amino)-2-methyl-pyridazin-3(2H)-one]
20	Cc1cc(CNc2cc(OC[C@H]3C[C@@H]3c3ccc(Cl)cn3)nn(C)c2=O)n(C)n1 [Example 33, 6-(((1S,2S)-2-(5-chloropyridin-2-yl)cyclopropyl)methoxy)-4-((1,3-dimethyl-1H-pyrazol-5-yl)methylamino)-2-methylpyridazin-3(2H)-one]
175	Cc1ncc(CNc2cc(OC[C@H]3C[C@@H]3c3ccc(F)cn3)nn(C)c2=O)s1 [Example 22, 6-(((1S,2S)-2-(5-fluoropyridin-2-yl)cyclopropyl)methoxy)-2-methyl-4-((2-methylthiazol-5-yl)methylamino)pyridazin-3(2H)-one]
45	Cc1ccc([C@H]2C[C@@H]2COc2cc(NCc3nc(C)c(C)s3)c(=O)n(C)n2)nc1 [Example 127, 4-((4,5-dimethylthiazol-2-yl)methylamino)-2-methyl-6-(((1S,2S)-2-(5-methyl-pyridin-2-yl)cyclopropyl- )methoxy)pyridazin-3(2H)-one]
11800	Cc1nn(C)c(Cl)c1CNc1cc(OC[C@H]2C[C@@H]2c2ccn(C)n2)nn(C)c1=O [Example 40]
48	COc1ccc([C@H]2C[C@@H]2COc2cc(NCc3nc(C)c(C)s3)c(=O)n(C)n2)nc1 [Example 126, 4-((4,5-dimethylthiazol-2-yl)methylamino)-6-(((1S,2S)-2-(5-methoxy-pyridin-2-yl)cyclopropyl-)methoxy)-2-methyl-pyridazin-3(2H)-one]
89	Cc1cccc([C@H]2C[C@@H]2COc2cc(NCc3cnn(C)c3)c(=O)n(C)n2)n1 [Example 117, 2-methyl-4-((1-methyl-1H-pyrazol-4-yl)methyl-amino)-6-(((1S,2S)-2-(6-methylpyridin-2-yl)cyclopropyl)methoxy) pyridazin-3(2H)-one]
5900	COc1ccc([C@H]2C[C@@H]2COc2cc(N(Cc3ccc(C)nc3C)Cc3ccc(C)nc3C)c(=O)n(C)n2)nc1 [Example 91, 4-(bis((2,6-dimethylpyridin-3-yl)methyl)amino)-6-(((1S,2S)-2-(5-methoxypyridin-2-yl)cyclopropyl)methoxy)-2-methylpyridazin-3(2H)-one]
81.9	Cc1nnc(CNc2cc(OC[C@H]3C[C@@H]3c3ccc(Cl)cn3)nn(C)c2=O)s1 [Example 25, 6-(((1S,2S)-2-(5-chloropyridin-2-yl)cyclopropyl)methoxy)-2-methyl-4-((5-methyl-1,3,4-thiadiazol-2-yl)methylamino)pyridazin-3(2H)-one]
75000	CN(C)c1c(CNc2cc(OC[C@H]3C[C@@H]3c3ccn(C)n3)nn(C)c2=O)cnn1C [Example 82, 4-(((5-(dimethylamino)-1-methyl-1H-pyrazol-4-yl)methyl)amino)-2-methyl-6-(((1S,2S)-2-(1-methyl-1H-pyrazol-3-yl)cyclopropyl)methoxy)-pyridazin-3(2H)-one]
1580	COc1ccc([C@H]2C[C@@H]2COc2cc(NCc3c(C)nn(C)c3Cl)c(=O)n(C)n2)nc1 [Example 39, 4-((5-chloro-1,3-dimethyl-1H-pyrazol-4-yl)methylamino)-6-(((1S,2S)-2-(5-methoxypyridin-2-yl)cyclopropyl)methoxy)-2-methylpyridazin-3(2H)-one]
74	COc1ccc(CNc2cc(OC[C@H]3C[C@@H]3c3ccc(C)cn3)nn(C)c2=O)cc1 [Example 8, 4-(4-methoxybenzylamino)-2-methyl-6-(((1S,2S)-2-(5-methylpyridin-2-yl)cyclopropyl)methoxy)-pyridazin-3(2H)-one]
8210	Cn1ccc([C@H]2C[C@@H]2COc2cc(NCc3nccs3)c(=O)n(C)n2)n1 [Example 47, 2-methyl-6-(((1S,2S)-2-(1-methyl-1H-pyrazol-3-yl)cyclopropyl)methoxy)-4-((thiazol-2-ylmethyl)amino)pyridazin-3(2H)-one]
5700	COc1ccc([C@H]2C[C@@H]2COc2cc(NCc3cnccn3)c(=O)n(C)n2)nc1 [Example 66, 6-(((1S,2S)-2-(5-methoxypyridin-2-yl)cyclopropyl)methoxy)-2-methyl-4-((pyrazin-2-ylmethyl)amino)pyridazin-3(2H)-one]
37	Cc1cccc([C@H]2C[C@@H]2COc2cc(NCc3ncc(C)s3)c(=O)n(C)n2)n1 [Example 118, 2-methyl-6-(((1S,2S)-2-(6-methylpyridin-2-yl)cyclo-propyl)methoxy)-4-((5-methylthiazol-2-yl)methyl-amino)pyridazin-3(2H)one]
5	Cn1cc(CNc2cc(OC[C@H]3C[C@@H]3c3ccc4c(n3)CCC4)nn(C)c2=O)cn1 [Example 125, 6-(((1S,2S)-2-(6,7-dihydro-5H-cyclopenta[b]pyridin-2-1)cyclopropyl)methoxy)-2-methyl-4-((1-methyl-1H-pyrazol-4-yl)methylamino-)pyridazin-3(2H)-one]

Ki [pM]	Compound
806	Cc1ccc(CNc2cc(OC[C@H]3C[C@@H]3c3ccn(C)n3)nn(C)c2=O)cn1 [Example 20, 2-methyl-6-(((1S,2S)-2-(1-methyl-1H-pyrazol-3-yl)cyclopropyl)methoxy)-4-((6-methylpyridin-3-yl)methylamino)pyridazin-3(2H)-one]
51200	Cc1ccc([C@H]2C[C@@H]2COc2cc(NC(=O)c3cc(C)nn3C)c(=O)n(C)n2)nc1 [Example 102, 1,3-dimethyl-N-(2-methyl-6-(((1S,2S)-2-(5-methyl-pyridin-2-yl)cyclopropyl-)methoxy)-3-oxo-2,3-dihydropyridazin-4-yl)-1H-pyrazole-5-carboxamide]
1400	Cc1cnc(CNc2cc(OC[C@H]3C[C@@H]3c3nn(C)c4ccccc34)nn(C)c2=O)s1 [Example 112, 2-methyl-6-(((1S,2S)-2-(1-methyl-1H-indazol-3-yl)cyclopropyl)methoxy)-4-((5-methylthiazol-2-yl)methylamino)pyridazin-3(2H)-one]
552	Cn1cc(CNc2cc(OC[C@H]3C[C@@H]3c3ccc(OC(F)F)cn3)nn(C)c2=O)cn1 [Example 30, 6-(((1S,2S)-2-(5-(difluoromethoxy)pyridin-2-yl)cyclopropyl)methoxy)-2-methyl-4-((1-methyl-1H-pyrazol-4-yl)methylamino)pyridazin-3(2H)-one]
1500	Cn1ccc([C@H]2C[C@@H]2COc2cc(NCc3ccnn3C)c(=O)n(C)n2)n1 [Example 98, 2-methyl-6-(((1S,2S)-2-(1-methyl-1H-pyrazol-3-yl)cyclopropyl)methoxy)-4-(((1-methyl-1H-pyrazol-5-yl)methyl)amino)-pyridazin-3(2H)-one]
4	COc1ccc([C@H]2C[C@@H]2COc2nn(C)c(=O)c(NCc3nnc(C)s3)c2Br)nc1 [Example 140, 5-bromo-6-(((1S,2S)-2-(5-methoxypyridin-2-yl)cyclopropyl)methoxy)-2-methyl-4-((5-methyl-1,3,4-thiadiazol-2-yl)methyl-amino)pyridazin-3(2H)-one]
4	COc1ccc([C@H]2C[C@@H]2COc2nn(C)c(=O)c(NCc3nnc(C)s3)c2Cl)nc1 [Example 141, 5-chloro-6-(((1S,2S)-2-(5-methoxypyridin-2-yl)cyclopropyl)methoxy)-2-methyl-4-((5-methyl-1,3,4-thiadiazol-2-yl)methylamino)pyridazin-3(2H)-one]
648	COc1ccc([C@H]2C[C@@H]2COc2cc(NCc3cnn(C)n3)c(=O)n(C)n2)nc1 [Example 148, 6-(((1S,2S)-2-(5-methoxypyridin-2-yl)cyclopropyl)methoxy)-2-methyl-4-((2-methyl-2H-1,2,3-triazol-4-yl)methylamino)pyridazin-3(2H)-one]
28	Cc1ccc(CNc2cc(OC[C@H]3C[C@@H]3c3ccc(OC(F)F)cn3)nn(C)c2=O)c(C)n1 [Example 58, 6-(((1S,2S)-2-(5-(difluoromethoxy)pyridin-2-yl)cyclopropyl)-methoxy)-4-(((2,6-di-methylpyridin-3-yl)-methyl)amino)-2-methyl-pyridazin-3(2H)-one]
21	Cc1ccc(CNc2cc(OC[C@H]3C[C@@H]3c3ccccn3)nn(C)c2=O)c(C)n1 [Example 55, 4-(((2,6-dimethylpyridin-3-yl)methyl)amino)-2-methyl-6-(((1S,2S)-2-(pyridin-2-yl)cyclopropyl-)-methoxy)pyridazin-3(2H)-one]
33	Cc1cccc([C@H]2C[C@@H]2COc2cc(NCc3nnc(C)s3)c(=O)n(C)n2)n1 [Example 115, 2-methyl-4-((5-methyl-1,3,4-thiadiazol-2-yl)methylamino)-6-(((1S,2S)-2-(6-methylpyridin-2-yl)cyclopropyl)methoxy) pyridazin-3(2H)-one]
64	Cc1ncc(CNc2cc(OC[C@H]3C[C@@H]3c3ccc(Cl)cn3)nn(C)c2=O)s1 [Example 34, 6-(((1S,2S)-2-(5-chloropyridin-2-yl)cyclopropyl)methoxy)-2-methyl-4-((2-methylthiazol-5-yl)methylamino)pyridazin-3(2H)-one]
3400	Cc1cccc([C@H]2C[C@@H]2COc2cc(NCc3ccccn3)c(=O)n(C)n2)n1 [Example 119, 2-methyl-6-(((1S,2S)-2-(6-methylpyridin-2-yl)cyclo-propyl)methoxy)-4-(pyridin-2-ylmethylamino-)pyridazin-3(2H)-one]
118	Cc1cnc(CNc2cc(OC[C@@H]3C[C@H]3c3nn(C)c4ccccc34)nn(C)c2=O)s1 [Example 114, 2-methyl-6-(((1R,2R)-2-(1-methyl-1H-indazol-3-yl)cyclopropyl)methoxy)-4-((5-methylthiazol-2-yl)methylamino)pyridazin-3(2H)-one]
> 100000	Cc1nc(CNc2cc(OC[C@H]3C[C@@H]3c3ccn(C)n3)nn(C)c2=O)cs1 [Example 48]
